# Several values for one entry are separate records, joined by “and”; a condition that tells them apart may be missing. Equal entries are not always repeated. Entries after “also recorded” stand apart in the source; their conditions may differ.
# How the values were obtained:
# MIBC = settings: neoadjuvant cisplatin-containing chemotherapy; cited from earlier work
# bladder cancer [1] = settings: 5-ALA PDT after mitomycin, red laser light 635 nm, 18 mW/cm^2; cited from earlier work
# bladder cancer [2] = settings: cited from earlier work
# bladder cancer [3] = settings: 5-ALA instilled, red light 633 nm, 30 and 50 J/cm^2; cited from earlier work
# bladder cancer [4] = settings: cited from earlier work; remark: listed apart in the source
# [5] = system: superficial bladder tumors (rat bladder carcinoma cell line); assay: PDT with HAL and blue light in orthotopic rat bladder tumor model; assay type: in vivo; settings: HAL 2 mg/ml (8 mM), 1 hour
# Protocol: A rat bladder carcinoma cell line was used in these experiments to establish superficial bladder tumors in Female Fischer rats weighing 150-175 g as described in Francois, et al., J. Urol. 190(2), 2013, 731-736. The animals were used in the experiments 5 days after tumor cell inoculation.
# Lyophilized HAL (in the form of Hexvix® powder) was dissolved in PBS to a final concentration of 2 mg/ml (8 mM). 0.5 ml of the solution was instilled into the rat bladder and was left in the bladder for about 1 hour. After evacuation of the HAL solution, 0.5 ml of PBS was instilled into the bladder and whole bladder irradiation with blue light at a fluence rate of 3.5 or 7.0 mW/cm^2 was performed using a 170 mW Modulight laser model ML 6500-405 delivering light at a wavelength of 401 nm, coupled to a fiber with a cylindrical diffuser (1×5 mm) model RD05/500/800 (Medlight, Ecublens, Switzerland) placed in a central position in the bladder. Rats received a blue light dose of 4.0 J/cm^2 (fluence rate 3.5 mW/cm^2) or 7.5 J/cm^2 (fluence rate 7.0 mW/cm^2)
# For control, no Hexvix was instilled and only blue light irradiation was carried out at the aforementioned fluence rates/light doses.
# The rats were sacrificed 48 hours after illumination by an overdose of pentobarbital. […]
# [6] = system: patient-derived bladder tumor; assay: Establishing in vitro primary cell cultures from bladder tumors resected after HAL/blue light TUR; assay type: cell-based, human; settings: HAL/blue light group; blue light 1.5 to 12.5 mW/cm^2, 0.2 to 15.0 J/cm^2
# Protocol: A solution of HAL (Hexvix®) was instilled into the bladder of patients through a catheter and was left in the bladder for about 1 hour. If the patient could not retain the composition for about 1 hour, at least about 1 hour was allowed to pass from the instillation of Hexvix® to the start of exposing the inside of the bladder to light. After evacuation of Hexvix®, a commercially available blue-light cystoscope was inserted into the bladder and a TUR was carried out by exposing the inside of the bladder to white light for the visual inspection, subsequent blue light exposure for fluorescence detection of bladder cancer lesions, resection of the detected lesions under white light and monitoring of the completeness of the resection by use of blue light. Blue light was provided at a fluence rate of 1.5 to 12.5 mW/cm^2 and a light dose of 0.2 to 15.0 J/cm^2 […] at a fluence rate of 3.0 to 22.0 mW/cm^2 and a light dose of 0.4 to 26.5 J/cm^2.
# The resected bladder tumors were processed according to methods known in the art and primary cell cultures were established from said patient-derived bladder tumor under appropriate conditions in culture medium. […]
# bladder cancer [7] = settings: patients with HAL-guided TUR prior to cystectomy, Kaplan-Meier, cited from earlier work
# [8] = system: non-muscle invasive papillary bladder cancer (NMIBC); assay: Phase III multicenter study, tumor recurrence after HAL blue light cystoscopy/TUR; assay type: in vivo, human; settings: 9 months follow-up; for Tumor recurrence rate, All: HAL group (n = 271)
# Protocol: A prospective, randomized, comparative, controlled phase III multicenter study was carried out in patients with non-muscle invasive papillary bladder cancer (NMIBC). The study population comprised 551 patients which were randomized into two groups (see below). The groups were similar in age, gender, race, bladder cancer history and prior intravesical therapy.
# HAL group: 271 patients. The method of the invention was carried out as follows: A solution of HAL (Hexvix®) was instilled into the bladder of patients through a catheter and was left in the bladder for about 1 hour. If the patient could not retain the composition for about 1 hour, at least about 1 hour was allowed to pass from the instillation of Hexvix® to the start of exposing the inside of the bladder to light.
# After evacuation of Hexvix®, cystoscopy was carried out with a commercially available cystoscope (blue and white light). The inside of the bladder was first exposed to white light and visually assessed, followed by exposure to blue light to detect cancerous lesions in the bladder. Transurethral resection (TUR) of the detected lesions was carried out under white light and completion of the resection was assessed under blue light.
# White light group: 280 patients. Cystoscopy and TUR of bladder cancer under white light only, no HAL.
# Patients from both groups with histologically confirmed Ta or T1 lesions were followed up by white light cystoscopy after 3, 6 and 9 months. All tumor recurrences during the 9 months follow-up period were histologically confirmed.
# 50 patients in the HAL group (18.5%) and 55 patients in the white light group (19.6%) received BCG treatment during the 9 months follow-up period. BCG (Bacillus Calmette-Guérin) is an immunotherapy agent for the treatment of bladder cancer. It is usually repeatedly instilled into the bladder.
# Mitomycin is a chemotherapeutic agent for the treatment of bladder cancer. It may be instilled after TUR (single instillation) to e.g. prevent tumor cell seeding, i.e. re-attachment to the bladder wall of tumor cells which were dislocated during resection. Mitomycin was administered after TUR to 16 patients in the HAL group (5.9%) and to 20 patients in the white light group (7.1%).
smiles,measurement,setting,value
N.N.[Cl][Pt][Cl] [cisplatin],absolute improvement in survival at 5 years,MIBC,5%
"NCC(=O)CCC(=O)O [5-ALA, 5-aminolevulinic acid]",light dose considered the upper limit of tolerability in terms of side effects,bladder cancer [1],25 J/cm^2
same,"complaints of urinary frequency and urgency, occurrence","bladder cancer [2]; 5-ALA, white light 100 J/cm^2, 12 patients treated",all patients complained about urinary frequency and urgency
same,patients whose symptoms persisted for 3 weeks,bladder cancer [2]; of 12 patients treated,5 patients
same,patients whose symptoms subsided within a week,bladder cancer [2]; of 12 patients treated,7 patients
same,patients whose irritating urinary symptoms did not resolve before 2 weeks,bladder cancer [3],13%
same,"side effects in the form of irritating urinary symptoms, occurrence",bladder cancer [3],occurred in all patients
"CCCCCCOC(=O)CCC(=O)CN [HAL, n-hexyl 5-amino-4-oxo-pentanoate]",patients tumor-free at 21 months,bladder cancer [4]; 2 of 17 patients,11.8%
same,patients tumor-free at 9 months,bladder cancer [4]; 4 of 17 patients,23.5%
same,patients with severe adverse effects,bladder cancer [4]; 4 patients of 17,23.5%
same,patients tumor-free at 6 months,bladder cancer [4]; 9 of 17 patients,52.9%
same,number of adverse effects reported,"bladder cancer [4]; HAL 8 mM and 16 mM, white light 25-100 J/cm^2, 3 PDTs, 17 patients",128
same,patients with adverse effects,"bladder cancer [4]; HAL 8 mM and 16 mM, white light, 3 PDTs",about 88%
same,number of severe adverse effects reported,"bladder cancer [4]; in 4 patients, 2 considered to relate to the PDT",7
same,bladder histology 48 hours after illumination (PDT effect),"[5]; blue light 3.5 mW/cm^2, 4 J/cm^2, n=2, one animal (50%) each","no inflammation, persistent and chorion infiltrating tumors; also recorded: looked less compact and the superficial layer of said tumor was destroyed"
same,bladder histology 48 hours after illumination (PDT effect),"[5]; blue light 7.0 mW/cm^2, 7.5 J/cm^2, n=2",increased tissue thickness/inflammation (both signs of PDT effect) and disintegrating/less compact tumor tissue
same,establishment of in vitro primary cell cultures from resected bladder tumors,[6],No in vitro primary cell cultures could be established
same,3-year overall survival (OS),bladder cancer [7]; 56.6% with white light,65.0%
same,3-year recurrence-free survival (RFS),bladder cancer [7]; 58.2% with white light TUR alone,69.8%
same,"Tumor recurrence rate, All",[8]; Table 1 and text,42.7% and 47.2%
same,"Tumor recurrence rate, All",[8]; Table 2,47.2%
same,"Tumor recurrence rate, Received BCG and/or mitomycin",[8]; HAL group,41.5%
same,"Tumor recurrence rate, Received no BCG and/or mitomycin",[8]; HAL group,49.0%
same,"Tumor recurrence rate, No BCG","[8]; HAL group, patients who did not receive BCG",49.3%
same,"Tumor recurrence rate, Received BCG","[8]; HAL group, patients who received BCG",38.0%

# From patent publication US11980772B2, “Method of photodynamic therapy (PDT) for bladder cancer” (priority 2015, dated 2024)
